Experimental findings from PubChem BioAssay (NCI) are described below.

Where “and” joins values, the source holds several entries; their conditions need not be identical. Equal values may be shown once.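 Cells were grown in 96-well plates and exposed to each compound for 48 hours at five concentrations; endpoints were interpolated linearly between bracketing concentrations, or set to the highest concentration if not reached. GI50 = concentration required for 50% inhibition of growth. At the TGI there is no net growth.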

What all share (assay): NCI anticancer screen, dose series, 48 h
Experiment [1] relates to HT29 colon.
For experiment [2], the system named is K-562 leukemia.
Experiment [3] concerns MALME-3M melanoma.
In experiment [4] the test system is OVCAR-5 ovarian.
Experiment [5] has as its system OVCAR-8 ovarian.
The test system of experiment [6] is SF-268 CNS.
The subject of experiment [7] is SN12C renal.
The subject of experiment [8] is SNB-19 CNS.
In experiment [9] the test system is UACC-257 melanoma.

Turning to `COc1cc(C(=O)C/C(CCC(=O)Nc2ccc(Cl)cc2Cl)=N/NC(=O)C(N)=O)ccc1O`, the TGI in experiment [1], in [2], in experiment [3], in [4], in experiment [5] and in experiment [6] was more than 100 µM each time. Further, the TGI in [7], in [8] and in [9] was more than 100 µM each time.
Consider `CCC[CH2][Sn]([CH2]CCC)([O]C(=O)c1cc(OC)c(OC)cc1OC)[O]C(=O)c1cc(OC)c(OC)cc1OC`, for which the GI50 is 1.96 µM in [1]; 0.324 µM in experiment [2]; 0.793 µM in [3]; 2.27 µM in experiment [4]; 1.48 µM in [5]; 1.23 µM in [6]. Moreover, the GI50 in experiment [7] was 1.52 µM; in experiment [8], 0.626 µM; in experiment [9] it was 1.29 µM. Further, the TGI in experiment [1] was found to be 4.67 µM; in experiment [2], 2.97 µM; in experiment [3], 2.08 µM; in experiment [4] it was 4.33 µM; in [5], 3.03 µM; in experiment [6] it was 2.54 µM. The TGI in [7] was found to be 3.29 µM; in experiment [8] it was 1.82 µM; in experiment [9], 3.31 µM.
Consider `COc1c(NC(=O)CC(C)=O)[c]([Hg][O]C(C)=O)c(OC)c(Cl)[c]1[Hg][O]C(C)=O`, for which the GI50 in [1] was 11.3 µM; in [2], 8.46 µM; in experiment [3] it was 5.17 µM; in experiment [4], 25.7 µM; in experiment [5], 17.8 µM; in experiment [6], 12.8 µM. Further, the GI50 in [7] is 15.4 µM; in [8], 18 µM; in experiment [9], 13.7 µM. The TGI in experiment [1] was 32.6 µM; in experiment [2], 41.1 µM; in experiment [3], 16.8 µM; in experiment [4], 40.4 µM; in experiment [5] it was 36.3 µM; in [6], 28.5 µM. The TGI in [7] came to 29.8 µM; in [8] it was 32.3 µM; in [9], 26.5 µM.
As for `Cc1ccc(S(=O)(=O)SCc2ccccc2CSS(=O)(=O)c2ccc(C)cc2)cc1`, the TGI in [1] is 52.9 µM; in experiment [2], 47 µM; in experiment [3], more than 100 µM; in experiment [5], 76.5 µM; in experiment [6], more than 100 µM; in experiment [7] it was 33.6 µM. Moreover, the TGI in experiment [8] and in experiment [9] was more than 100 µM each time.
For the molecule `O=C(Nc1nc2ccccc2n1Cc1ccc(Cl)cc1)NC12CC3CC(CC(C3)C1)C2`, the TGI is more than 100 µM in [1]; more than 100 µM in experiment [2]; 62 µM in experiment [3]; more than 100 µM in experiment [4]; 23.8 µM in experiment [6]; more than 100 µM in experiment [7]. The TGI in [8] is 53.7 µM; in [9], more than 100 µM.
Consider `COc1cc(/C=C/c2ccc(OC(C)=O)cc2)cc(OC)c1OC`, for which the TGI in [1] is more than 100 µM; in experiment [2], more than 100 µM; in experiment [3], 97.1 µM; in [4], 68.6 µM; in experiment [5] it was more than 100 µM; in experiment [6] it was more than 100 µM. In addition, the TGI in experiment [7], in [8] and in experiment [9] was more than 100 µM throughout.
Take `CC(=O)C1C(=O)C(=O)N(c2ccccc2N2C(=O)C(=O)C(C(C)=O)C2=O)C1=O` (centres undefined): the TGI in experiment [1], in [2], in experiment [3], in experiment [4], in experiment [5] and in [6] was more than 100 µM in each case. In addition, the TGI in experiment [7], in [8] and in experiment [9] was more than 100 µM throughout.
Take `CCOC(=O)[C@H]1Nc2ccc(Cl)cc2[C@H]2OCC[C@@H]12`: the TGI in experiment [1], in experiment [2], in experiment [3], in [4], in experiment [5] and in experiment [6] was more than 100 µM in each case. The TGI in [7], in [8] and in [9] was more than 100 µM throughout.
As for `Cc1ccc(NC(=O)CC/C(CC(=O)c2ccc(F)cc2)=N\NC(=O)C(=O)NN)cc1C`, the TGI in experiment [1], in experiment [2], in [3], in [4], in experiment [5] and in [6] was more than 100 µM each time. The TGI in experiment [7], in experiment [8] and in experiment [9] was more than 100 µM throughout.
On to `CCCCCCCCCC1C(C)c2c([nH]c3ccccc23)C2C(=O)N(c3ccccc3)C(=O)C21` (centres undefined), for which the TGI in [1] is 22.7 µM; in experiment [2], 15.9 µM; in experiment [3], more than 100 µM; in [4], 31.5 µM; in [5], more than 100 µM; in experiment [9] it was 29.3 µM.
Consider `Cc1ccccc1NC(=O)C1C(=O)N(c2ccccc2C)C(=O)/C1=N\N` (centres undefined), for which the TGI in experiment [1], in experiment [2], in experiment [3], in experiment [4], in experiment [5] and in experiment [6] was more than 100 µM in each case. The TGI in experiment [7], in [8] and in experiment [9] was more than 100 µM in each case.
On to `O=C(O)CCCCCO`, for which the TGI in [1], in experiment [2], in experiment [3], in experiment [4], in experiment [5] and in [6] was more than 100 µM in each case. The TGI in [7], in [8] and in [9] was more than 100 µM throughout.
With `COc1cc2c(c(OC)c1OC)-c1ccc(SC)c(=O)cc1[C@@H](NCc1cccc(C#N)c1)CC2`, the GI50 in experiment [1] is less than 0.0075 µM; in experiment [2] it was less than 0.0075 µM; in [3], less than 0.0075 µM; in experiment [4], more than 75 µM; in experiment [5] it was less than 0.0075 µM; in experiment [6], less than 0.0075 µM. Moreover, the GI50 in experiment [7] is less than 0.0075 µM; in [8] it was less than 0.0075 µM; in experiment [9], 6.18 µM. Also, the TGI in [1] was 0.0348 µM and < 0.0075 µM; in experiment [2] it was 18.2 µM; in [3], more than 75 µM; in [4], more than 75 µM; in [7], 66.1 µM; in [8] it was more than 75 µM. For the same molecule, the TGI in [9] was more than 75 µM.
As for `CC(C)(C)OC(=O)NC1CCC[C@H]1O` (some centres undefined), the TGI in experiment [1], in experiment [2], in experiment [3], in [4], in experiment [5] and in experiment [6] was more than 100 µM throughout. In addition, the TGI in experiment [7], in experiment [8] and in experiment [9] was more than 100 µM in each case.
As to `Cc1nc(-c2nc(C)c(C(=O)NN(C)C)s2)sc1C(=O)NN(C)C`, the TGI in [1], in experiment [2], in [3], in [4], in experiment [5] and in [6] was more than 100 µM in each case. Moreover, the TGI in [7], in experiment [8] and in experiment [9] was more than 100 µM in each case.
Take `CCc1ccc(Nc2cc(=O)[nH]c(=S)n2C)cc1`: the TGI in experiment [1], in [2], in experiment [3], in [4], in experiment [5] and in [6] was more than 100 µM in each case. Also, the TGI in experiment [7], in experiment [8] and in experiment [9] was more than 100 µM throughout.
Turning to `CC(=O)OC1C/C(C)=C/CCC(C)/C=C/C2(C)CCC(C(C)(C)O)C12` (centres undefined), the TGI in experiment [1], in [2], in [3], in experiment [4], in experiment [5] and in experiment [6] was more than 100 µM in each case. In addition, the TGI in experiment [7] is 96.4 µM; in experiment [8], more than 100 µM; in experiment [9], more than 100 µM.
`CC(=O)Nc1ccccc1-c1cnc2ccccc2n1`: the TGI in [1], in experiment [2], in [3], in experiment [4], in experiment [5] and in experiment [6] was more than 100 µM throughout. Further, the TGI in experiment [7], in experiment [8] and in experiment [9] was more than 100 µM each time.
Turning to `COC(=O)c1c2c(c(-c3ccccc3)c3c1-c1nc(Cl)ccc1CC3)CCc1ccc(Cl)nc1-2`, the TGI in experiment [1], in experiment [2], in experiment [3], in experiment [4], in experiment [5] and in experiment [6] was more than 100 µM in each case. Besides, the TGI in [7], in [8] and in [9] was more than 100 µM each time.
In the case of `CC(=O)OCC1OC(n2c(=O)n(-c3ccccc3)c(=O)c3cc(Br)cc(Br)c32)C(OC(C)=O)C(OC(C)=O)C1OC(C)=O` (centres undefined), the TGI in experiment [1], in experiment [2], in experiment [3], in [4], in experiment [5] and in experiment [6] was more than 100 µM throughout. The TGI in experiment [7], in experiment [8] and in experiment [9] was more than 100 µM each time.
`Nc1ccc2c(c1)CC1c3ccccc3C(C2)c2ccccc21`: the TGI in [1], in experiment [2], in [3], in experiment [4], in [5] and in [6] was more than 100 µM in each case. In addition, the TGI in experiment [7], in experiment [8] and in experiment [9] was more than 100 µM in each case.
Consider `CCOC(=O)C(=Cc1cc(OC)ccc1OC)C(=O)OCC`, for which the TGI in experiment [1] amounted to 17 µM; in experiment [2] it was 27.4 µM; in experiment [3], 25.5 µM; in [5] it was 20.9 µM; in experiment [7], 26.3 µM; in experiment [8], 25 µM.
As to `Nc1nc(N)c(N=O)c(Nc2ccc(I)cc2)n1`, the TGI in [2] is more than 100 µM; in experiment [3], 78.3 µM; in [4], 61 µM; in experiment [5], more than 100 µM; in experiment [6] it was 74.1 µM; in experiment [7], 49.2 µM. Besides, the TGI in experiment [8] was more than 100 µM; in experiment [9] it was 70.1 µM.
With `COc1ccc(/C=C2\SC(c3ccc(OC)cc3)N(NC(=O)Cc3ccccc3)C2=O)cc1` (centres undefined), the TGI in [1], in [2], in [3], in [4], in [5] and in [6] was more than 100 µM in each case. The TGI in experiment [7] and in experiment [9] was more than 100 µM in each case.
As for `Cc1ccc2c(c1)SC(c1cc3c(cc1Br)OCO3)S2` (centres undefined), the TGI in [1], in experiment [2], in [3], in [4], in experiment [5] and in experiment [6] was more than 31.6 µM throughout. The figures for the TGI in experiment [7], in experiment [8] and in experiment [9] were more than 31.6 µM, more than 100 µM and more than 31.6 µM, respectively.
Regarding `N#CCN1CCOCCOCCN(CC#N)CCOCCOCC1`, the TGI in experiment [1], in experiment [2], in experiment [3], in experiment [4], in experiment [5] and in experiment [6] was more than 100 µM each time. The TGI in [7], in experiment [8] and in [9] was more than 100 µM in each case.
For the molecule `Nc1ncnc2c(C3OC(CO)C(O)C3O)scc12` (centres undefined), the TGI in [1] is 1.12 µM; in experiment [2] it was 0.03 µM; in experiment [3], 24.4 µM; in experiment [4], 0.787 µM and 0.139 µM; in experiment [6], 33.3 µM; in experiment [7], 4.93 µM and 4.07 µM. For the same molecule, the TGI in experiment [8] was 65.6 µM. Further, the GI50 is 4.35 µM in [3]; 1.41 µM in experiment [6]; 0.105 µM in experiment [7]; 4.92 µM in experiment [8]; 1.11 µM in experiment [9].
On to `Cc1c(C(=O)/C=C/c2ccccc2Cl)[n+](=O)c2ccccc2n1[O-]`, for which the TGI is 33.8 µM in experiment [1]; 26.5 µM in [2]; 29.2 µM in experiment [3]; 35.7 µM in [4]; 26.1 µM in [5]; 28.4 µM in experiment [7]. For the same molecule, the TGI was determined as 31 µM in [8] and 27.2 µM in experiment [9].
